Assay results reported in the supplement of paper PMC10307832.

Assays:
Assay in all cases: relative viability (nuclei count vs DMSO), 5 days (fraction); higher = more cells survive
HCC-15 = tested on: HCC-15
Method in brief: (§1)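 One day after seeding in 1536-well plates, lung cancer cell lines were dosed by pin tool. Dosing was either single-drug or a fixed anchor-drug dose plus five library-drug doses (not always all listed) in √10 steps. After 5 days, nuclei were stained in one fix-and-stain step and counted on 4× images, and relative viability is the nuclei count of treated wells over that of vehicle wells, given as the median of duplicate plates.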

NCI-H2126 = tested on: NCI-H2126
Method in brief: as §1

COR-L 105 = tested on: COR-L 105
Method in brief: as §1

NCI-H2009 = tested on: NCI-H2009
Method in brief: as §1

NCI-H1993 = tested on: NCI-H1993
Method in brief: as §1

PC-14 = tested on: PC-14
Method in brief: as §1

SK-MES-1 = tested on: SK-MES-1
Method in brief: as §1

HCC-44 = tested on: HCC-44
Method in brief: as §1

CAL-12T = tested on: CAL-12T
Method in brief: as §1

LXF-289 = tested on: LXF-289
Method in brief: as §1

BEN = tested on: BEN
Method in brief: as §1

HCC-827 = tested on: HCC-827
Method in brief: as §1

PC-3 [JPC-3] = tested on: PC-3 [JPC-3]
Method in brief: as §1

NCI-H2170 = tested on: NCI-H2170
Method in brief: as §1

LU99A = tested on: LU99A
Method in brief: as §1

NCI-H1563 = tested on: NCI-H1563
Method in brief: as §1

LCLC-97TM1 = tested on: LCLC-97TM1
Method in brief: as §1

HOP-62 = tested on: HOP-62
Method in brief: as §1

HARA = tested on: HARA
Method in brief: as §1

NCI-H727 = tested on: NCI-H727
Method in brief: as §1

LC-2-ad = tested on: LC-2-ad
Method in brief: as §1

NCI-H2087 = tested on: NCI-H2087
Method in brief: as §1

HCC-366 = tested on: HCC-366
Method in brief: as §1

COR-L23 = tested on: COR-L23
Method in brief: as §1

CCCCCCCCCCCC1=C(O)C(=O)C=C(O)C1=O [Embelin] + C[C@@H](Oc1cc(-c2cnn(C3CCNCC3)c2)cnc1N)c1c(Cl)ccc(F)c1Cl [Crizotinib] (partner 1 µM)
relative viability (HCC-15; first compound 0.08 µM): 0.779 | relative viability (HCC-15; first compound 0.8 µM): 0.852 | relative viability (HCC-15; first compound 2.53 µM): 1 | relative viability (HCC-15; first compound 8 µM): 0.907 | relative viability (NCI-H2126; first compound 0.08 µM): 1.04 | relative viability (NCI-H2126; first compound 0.8 µM): 1.05 | relative viability (NCI-H2126; first compound 2.53 µM): 1.19 | relative viability (NCI-H2126; first compound 8 µM): 1.04 | relative viability (COR-L 105; first compound 0.08 µM): 0.727 | relative viability (COR-L 105; first compound 0.8 µM): 0.932 | relative viability (COR-L 105; first compound 2.53 µM): 0.875 | relative viability (COR-L 105; first compound 8 µM): 1.04 | relative viability (NCI-H2009; first compound 0.08 µM): 1.04 | relative viability (NCI-H2009; first compound 0.8 µM): 1.12 | relative viability (NCI-H2009; first compound 2.53 µM): 1.11 | relative viability (NCI-H2009; first compound 8 µM): 1.06 | relative viability (NCI-H1993; first compound 0.08 µM): 1 | relative viability (NCI-H1993; first compound 0.8 µM): 0.844 | relative viability (NCI-H1993; first compound 2.53 µM): 0.943 | relative viability (NCI-H1993; first compound 8 µM): 0.793 | relative viability (PC-14; first compound 0.08 µM): 0.916 | relative viability (PC-14; first compound 0.8 µM): 0.845 | relative viability (PC-14; first compound 2.53 µM): 0.921 | relative viability (PC-14; first compound 8 µM): 0.891 | relative viability (SK-MES-1; first compound 0.08 µM): 1.01 | relative viability (SK-MES-1; first compound 0.8 µM): 1.1 | relative viability (SK-MES-1; first compound 2.53 µM): 0.952 | relative viability (SK-MES-1; first compound 8 µM): 1.11 | relative viability (HCC-44; first compound 0.08 µM): 0.771 | relative viability (HCC-44; first compound 0.8 µM): 0.803 | relative viability (HCC-44; first compound 2.53 µM): 0.826 | relative viability (HCC-44; first compound 8 µM): 0.829 | relative viability (CAL-12T; first compound 0.08 µM): 0.615 | relative viability (CAL-12T; first compound 0.8 µM): 0.785 | relative viability (CAL-12T; first compound 2.53 µM): 0.724 | relative viability (CAL-12T; first compound 8 µM): 0.801 | relative viability (LXF-289; first compound 0.08 µM): 0.835 | relative viability (LXF-289; first compound 0.8 µM): 0.818 | relative viability (LXF-289; first compound 2.53 µM): 0.884 | relative viability (LXF-289; first compound 8 µM): 0.896 | relative viability (BEN; first compound 0.08 µM): 0.845 | relative viability (BEN; first compound 0.8 µM): 1.18 | relative viability (BEN; first compound 2.53 µM): 1.17 | relative viability (BEN; first compound 8 µM): 0.849 | relative viability (HCC-827; first compound 0.08 µM): 0.98 | relative viability (HCC-827; first compound 0.8 µM): 0.931 | relative viability (HCC-827; first compound 2.53 µM): 0.976 | relative viability (HCC-827; first compound 8 µM): 0.977 | relative viability (PC-3 [JPC-3]; first compound 0.08 µM): 0.948 | relative viability (PC-3 [JPC-3]; first compound 0.8 µM): 1.01 | relative viability (PC-3 [JPC-3]; first compound 2.53 µM): 1.06 | relative viability (PC-3 [JPC-3]; first compound 8 µM): 0.987 | relative viability (NCI-H2170; first compound 0.08 µM): 1.22 | relative viability (NCI-H2170; first compound 0.8 µM): 1.18 | relative viability (NCI-H2170; first compound 2.53 µM): 1.4 | relative viability (NCI-H2170; first compound 8 µM): 1.36 | relative viability (LU99A; first compound 0.08 µM): 0.605 | relative viability (LU99A; first compound 0.8 µM): 0.736 | relative viability (LU99A; first compound 2.53 µM): 0.55 | relative viability (LU99A; first compound 8 µM): 0.606 | relative viability (NCI-H1563; first compound 0.08 µM): 0.8 | relative viability (NCI-H1563; first compound 0.8 µM): 0.837 | relative viability (NCI-H1563; first compound 2.53 µM): 0.785 | relative viability (NCI-H1563; first compound 8 µM): 0.899 | relative viability (LCLC-97TM1; first compound 0.8 µM): 0.517 | relative viability (LCLC-97TM1; first compound 2.53 µM): 0.358 | relative viability (LCLC-97TM1; first compound 8 µM): 0.312 | relative viability (HOP-62; first compound 0.08 µM): 0.957 | relative viability (HOP-62; first compound 0.8 µM): 0.926 | relative viability (HOP-62; first compound 2.53 µM): 0.857 | relative viability (HOP-62; first compound 8 µM): 0.82 | relative viability (HARA; first compound 0.08 µM): 1.03 | relative viability (HARA; first compound 0.8 µM): 1.08 | relative viability (HARA; first compound 2.53 µM): 1.12 | relative viability (HARA; first compound 8 µM): 1.23 | relative viability (NCI-H727; first compound 0.08 µM): 0.938 | relative viability (NCI-H727; first compound 0.8 µM): 0.924 | relative viability (NCI-H727; first compound 2.53 µM): 1.06 | relative viability (NCI-H727; first compound 8 µM): 0.898 | relative viability (LC-2-ad; first compound 0.08 µM): 0.451 | relative viability (LC-2-ad; first compound 0.8 µM): 0.564 | relative viability (LC-2-ad; first compound 2.53 µM): 0.472 | relative viability (LC-2-ad; first compound 8 µM): 0.427 | relative viability (NCI-H2087; first compound 0.08 µM): 0.886 | relative viability (NCI-H2087; first compound 0.8 µM): 0.899 | relative viability (NCI-H2087; first compound 2.53 µM): 0.766 | relative viability (NCI-H2087; first compound 8 µM): 0.937 | relative viability (HCC-366; first compound 0.08 µM): 0.633 | relative viability (HCC-366; first compound 0.8 µM): 0.572 | relative viability (HCC-366; first compound 2.53 µM): 1.02 | relative viability (HCC-366; first compound 8 µM): 0.637 | relative viability (COR-L23; first compound 0.08 µM): 0.691 | relative viability (COR-L23; first compound 0.8 µM): 0.762 | relative viability (COR-L23; first compound 2.53 µM): 0.701 | relative viability (COR-L23; first compound 8 µM): 0.745
